Experimental findings from patent publication US11154479B1, “Methods of removing color from color-treated hair” (L'Oreal, priority 2020, dated 2021) are described below.

Data set [1] can be described thus: Octanol/water partition coefficient (Log Pow) of direct dyes. Particulars: octanol/water partition coefficient of the dye. In kind it is physicochemical. The text has this: Pow is the octanol/water partition coefficient, which can be defined as the ratio of the concentration of a solute, such as the direct dye in the present disclosure, in a water-saturated octanolic phase to its concentration in an octanol-saturated aqueous phase. The octanol/water partition coefficient is typically expressed in Logarithmic form.
There are several existing experimental methods by the Organisation for Economic Co-operation and Development (OECD) and Quantitative Structure-Property Relationship (QSPR) models available for Log Pow measurement or prediction. The experimental methods include: the ‘slow-stirring’ method (OECD Test No. 123), the high-performance liquid chromatography (HPLC) method (OECD Test No. 117), and shake flask methods (referred to in OECD Test No. 107).
Thus, partition coefficient of a dye may be calculated as follows: Log Pow=Log [(dye concentration in octanol)/(dye concentration in water)].
The Log Pow value of a direct dye can be positive, negative or neutral. The Log Pow values for some dyes follows in the below table.

A short description of data set [2]: Removal of HC Blue 15 from dyed hair swatches by organic salt solutions (ΔE, CIE L*a*b*). Particulars: HC Blue 15 dyed hair; for ΔE: soaked 30 minutes at 40° C., shampooed once. As to the method: (§1) Unless otherwise indicated, hair swatches were all treated using the same protocol. Specifically, 2 g dyed hair swatches are soaked in 80 g treatment solution in water for 30 minutes at 40° C., then the treated hair swatches are then shampooed/washed once (rinsing step) and blow-dried for evaluation.
(§2) Unless otherwise indicated, color removal performance is measured using CIE L* a* b* coordinates. ΔE is used to describe the color difference and is defined by the following equation: ΔE*ab=√{square root over ((L*2−L*1)^2+(a*2−a*1)^2+(b*2−b*1)^2)} where, L1*, a1; b1 are measured on freshly dyed hair L2*, a2, b2 are measured on the dyed hair treated by color remover systems. The higher ΔE values, the more efficient the color removal.
Hair swatches dyed with HC Blue 15 were treated with the organic salts at varying concentrations using the protocol described above.

Data set [3] can be described thus: Removal of Basic Red 51 from dyed hair swatches by organic salt solutions (ΔE). Particulars: 10% organic salt in water; Basic Red 51 dyed hair; soaked 30 minutes at 40° C.; water control 5.3. As to the method: as §1, §2
Hair swatches dyed with Basic Red 51 were treated with BMIM octylsulfate and TBuMA Cl, each at 10% concentration using the protocol described above. Basic Red 51 contains a quaternary moiety and has the structure below.

The conditions of data set [4]: 10% organic salt in water; hydroxyanthraquinoneaminopropyl methyl morpholinium methosulfate dyed hair; 30 minutes at 40° C.; water control 2.9.

Like-named read-outs stand apart in the source and are kept apart here.

With `COS(=O)(=O)[O-].C[N+]1(CCCNc2ccc(O)c3c2C(=O)c2ccccc2C3=O)CCOCC1` [Hydroxyanthraquinoneaminopropyl methyl morpholinium methosulfate], the “Log Pow” value in data set [1] was “around 2.89”.

For the compound “butyl-3-methylimidazolium octyl sulfate [BMIM octyl sulfate]”, the ΔE in data set [2] (1% organic salt in water) stood at 1.3; in data set [2] (5% organic salt in water) it was 18.4; in data set [2] (10% organic salt in water) it was 32.2; in data set [3], 22.2; in data set [4], 39.1. Further, the “Concentration of organic salt from which the ΔE value increased significantly” value in data set [2] is “about 5%”.

For the compound `CCCC[N+](C)(CCCC)CCCC.[Cl-]` [TBuMA Cl, tributylmethyl ammonium chloride], the figures for the ΔE in data set [2] (25% organic salt in water) and in data set [3] were 32.8 and 23.1, respectively.
